Results published in a melting point compilation (Tetko et al.; mined from patent text by program, amines drawn as free bases though some values may be those of a salt).

| Compound | melting point [°C] |
| --- | --- |
| CCCCNC(=O)[C@@H](C[C@H](O)[C@H](CC1CCCCC1)NC(=O)OC(C)(C)C)C(C)(C)O | 91 to 93 |
| O=C1Nc2cccc(-c3cccc([N+](=O)[O-])c3)c2/C1=C/c1ccc[nH]1 | 197 to 199 |
| CC(C)CCN1C(=O)C(N)C(=O)N(CC23CC4CC(CC(C4)C2)C3)c2ccccc21 (stereo unspecified) | 218 to 219 |
| O=C(c1ccccc1)c1ccc2nccnc2c1 | 120 |
| CCCc1c(C(=O)C2CCCC2)c2ccc(C(N)=O)cc2n1Cc1cc2c(cc1Cl)OCO2 | 236 to 237 |
| O=C(O)CCCNC(=O)c1ccccc1NC(=O)c1ccccc1O | 173 to 174 |
| O=C(c1cccc(C(=O)c2ccc(F)c([N+](=O)[O-])c2)c1)c1ccc(F)c([N+](=O)[O-])c1 | 148 to 149 |
| COc1cn2nc(OCCCN3CCC(OC(c4ccccc4)c4ccccc4)CC3)ccc2n1 | 133 to 135 |
| Cc1ccc2c(c1)C(C(=O)Nc1c(Cl)cccc1Cl)c1ccccc1CO2 (stereo unspecified) | 156 to 157 |
| COC(NC(=O)c1ccccc1O)C(Cl)(Cl)Cl (stereo unspecified) | 117 to 118 |
| O=C(c1ccoc1)c1cccc(-c2c(O)c3ccc(Cl)cc3[nH]c2=O)c1 | 284 to 286 |
| OC(c1ccc(Cl)cc1)c1cc2ccncc2[nH]1 (stereo unspecified) | 176 to 180 |
| O=NCNC1=Nc2ccc([N+](=O)[O-])cc2C(c2ccccc2Cl)=NC1 | 164 to 166 |
| CCOC(=O)C1=C(C)NC(C)=C(C(=O)OCC)C1c1nc(-c2ccc(OC)cc2)c(-c2ccc(OC)cc2)s1 | 177 to 178 |
| O=C(CN1CCOCC1)Nc1cccc2nc(N[C@@H]3CCc4ccccc43)ccc12 | 179 |
| Brc1cnc(-c2ccc(OCc3ccccc3)cc2)nc1 | 153 to 155 |
| OC(CCC(O)(C(F)(F)F)C(F)(F)F)(C(F)(F)F)C(F)(F)F | 96 to 98 |
| Cc1cc2c(cc1-c1cc(C=CC(=O)O)n(C)c1)C(C)(C)CCC2(C)C | 185 to 186 |
| N#CS/C=C\C(=O)Oc1ccccc1 | 79 to 83 |
| O=[N+]([O-])c1cnc2cc3c(cc2c1-c1ccccc1Cl)CCC3 | 175 to 176 |
| O=C1NCCN1S(=O)(=O)N1CCCCC1 | 201 |
| COc1cc(OC2CCN(C(=O)Cc3c[nH]cn3)CC2)ccc1CC(=O)N1CCN(c2ccccc2C)CC1C(N)=O (stereo unspecified) | 120 to 124 |
| c1cc(NC2=NCCS2)c2occc2c1 | 143 to 145 |
| Oc1ccccc1-c1nccs1 | 215 |
| O=C1CCOc2ccc(OCc3ccc4ccccc4n3)cc21 | 112 to 114 |

More lines, now with the values ahead:

| melting point [°C] | Compound |
| --- | --- |
| 130 to 132 | CC(=O)c1ccccc1Nc1c(Cl)ccc(C)c1Cl |
| 89 | CON(C)C(=O)CC(c1cccc(Br)c1)c1ccccc1C (stereo unspecified) |
| 90 to 91 | COCc1cc(NC(=O)OC)no1 |
| 58 to 60 | CCc1ccc(S(=O)O)cc1Cl |
| 106 to 107 | CCOC(=O)CCCCC(c1ccc(C)s1)N(O)C(N)=O (stereo unspecified) |
| 164 to 166 | Cn1cc(C(N)=O)c(Cl)n1 |
| 160 to 161 | CCCOc1ccc2c(c1)C(OS(=O)(=O)F)=C(C(=O)OC)[C@H]2c1ccc2c(c1)OCO2 |
| 119 | O=C(c1ccccc1Cl)c1ccccc1Nc1ncccc1[N+](=O)[O-] |
| 141 to 143 | CCOC(=O)c1cnc2c(OC)csc2c1Nc1ccccc1C |
| 102 to 104 | N#CC(CC(=O)CCl)(c1ccccc1)c1ccccc1 |
| 130 | Cn1cncc1C(O)(c1ccc2c(c1)c(-c1cccc(Cl)c1)cc(=O)n2C)c1nccn1C (stereo unspecified) |
| 225 to 226 | COc1cc(N)c(Cl)cc1C(=O)NN1CCN(Cc2cccs2)CC1 |
| 185 | CNc1nn(C(=O)Cl)c(=O)n1C |
| 78 to 81 | CC(C)N(CC(=O)c1ccc(F)cc1)c1ccccc1 |
| 163 to 166 | Cc1cc(N(C)C(=O)OC(C)(C)C)c(C)c(C)c1O |
| 117 to 120 | CN=C(NC#N)NCCCSCc1nsc(NC(=N)N)n1 |
